# From patent US10766865B2, “PKM2 modulators and methods for their use” (TOLERO PHARMACEUTICALS, INC., priority 2012, dated 2020)
# Target: PKM2 (Homo sapiens, UniProt P14618)
# Assay: PKM2 Biochemical Assay
# Settings: for Max. Resp.: % maximum response in a biochemical assay as compared with Fructose 1,6-bisphosphate
# Sequence of PKM2 (P14618 whole entry): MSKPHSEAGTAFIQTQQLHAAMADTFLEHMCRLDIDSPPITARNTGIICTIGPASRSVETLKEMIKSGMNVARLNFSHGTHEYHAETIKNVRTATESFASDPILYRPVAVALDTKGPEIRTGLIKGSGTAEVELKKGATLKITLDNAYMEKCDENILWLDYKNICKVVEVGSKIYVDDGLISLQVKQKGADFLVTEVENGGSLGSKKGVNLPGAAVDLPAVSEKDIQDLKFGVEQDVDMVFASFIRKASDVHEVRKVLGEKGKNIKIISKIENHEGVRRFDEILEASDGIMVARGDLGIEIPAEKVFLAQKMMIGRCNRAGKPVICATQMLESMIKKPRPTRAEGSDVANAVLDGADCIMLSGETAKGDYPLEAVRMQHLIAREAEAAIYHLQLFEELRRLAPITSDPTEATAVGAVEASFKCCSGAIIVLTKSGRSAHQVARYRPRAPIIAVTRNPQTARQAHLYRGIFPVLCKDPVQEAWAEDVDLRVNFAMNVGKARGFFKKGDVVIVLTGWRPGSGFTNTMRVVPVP
SMILES,Max. Resp.,AC50
"O=C(c1cc(C(F)(F)F)n[nH]1)N(Cc1cccc2[nH]ccc12)NC1CCC1 [Example 135, N-((1H-INDOL-4-YL)METHYL)-N′-CYCLOBUTYL-3-(TRIFLUOROMETHYL)-1H-PYRAZOLE-5-CARBOHYDRAZIDE]",100%,
"O=C(c1cc(C(F)(F)F)n[nH]1)N(Cc1cccc(F)c1O)CC1CCC1 [Example 136, N-(3-fluoro-2-hydroxybenzyl)-N-(cyclobutylmethyl)-3-(trifluoromethyl)-1H-pyrazole-5-carboxamide]",100%,
"O=C(c1cc(C(F)(F)F)n[nH]1)N(CCO)Cc1ccc(O)cc1F [Example 137, N-(2-fluoro-4-hydroxybenzyl)-3-(trifluoromethyl)-N-(2-hydroxyethyl)-1H-pyrazole-5-carboxamide]",70%,
"O=C(c1cc(C(F)(F)F)n[nH]1)N(Cc1ccc(O)cc1F)C1CCCCC1 [Example 139, N-(2-fluoro-4-hydroxybenzyl)-N-cyclohexyl-3-(trifluoromethyl)-1H-pyrazole-5-carboxamide]",100%,
"O=C(c1cc(C(F)(F)F)n[nH]1)N(CCC1CC1)Cc1ccc(O)cc1F [Example 140, N-(2-fluoro-4-hydroxybenzyl)-N-(2-cyclopropylethyl)-3-(trifluoromethyl)-1H-pyrazole-5-carboxamide]",100%,
"O=C(c1cc(C(F)(F)F)n[nH]1)N(Cc1cccc(Cl)c1O)CC1CCC1 [Example 141, N-(3-chloro-2-hydroxybenzyl)-N-(cyclobutylmethyl)-3-(trifluoromethyl)-1H-pyrazole-5-carboxamide]",100%,
"COCCN(Cc1ccc(O)cc1F)C(=O)c1cc(C(F)(F)F)n[nH]1 [Example 142, N-(2-fluoro-4-hydroxybenzyl)-3-(trifluoromethyl)-N-(2-methoxyethyl)-1H-pyrazole-5-carboxamide]",100%,
"CCN(CC)CCN(Cc1ccc(O)cc1F)C(=O)c1cc(C(F)(F)F)n[nH]1 [Example 143, N-(2-fluoro-4-hydroxybenzyl)-N-(2-(diethylamino)ethyl)-3-(trifluoromethyl)-1H-pyrazole-5-carboxamide]",100%,
"CCN(CC)CCN(Cc1ccccc1F)C(=O)c1cc(C(F)(F)F)n[nH]1 [Example 148, N-(2-fluorobenzyl)-N-(2-(diethylamino)ethyl)-3-(trifluoromethyl)-1H-pyrazole-5-carboxamide]",100%,
"O=C(c1cc(C(F)(F)F)n[nH]1)N(CCC1CC1)Cc1ccccc1F [Example 149, N-(2-fluorobenzyl)-N-(2-cyclopropylethyl)-3-(trifluoromethyl)-1H-pyrazole-5-carboxamide]",100%,
"O=C(c1cc(C(F)(F)F)n[nH]1)N(Cc1ccccc1F)CC1CCOC1 (centres unmarked) [Example 150, N-(2-fluorobenzyl)-3-(trifluoromethyl)-N-((tetrahydrofuran-3-yl)methyl)-1H-pyrazole-5-carboxamide]",68%,
"CCN1CCC(N(Cc2ccccc2F)C(=O)c2cc(C(F)(F)F)n[nH]2)C1 (centres unmarked) [Example 152, N-(2-fluorobenzyl)-N-(1-ethylpyrrolidin-3-yl)-3-(trifluoromethyl)-1H-pyrazole-5-carboxamide]",68%,
"O=C(c1cc(C(F)(F)F)n[nH]1)N(Cc1ccccc1F)C1CCCCC1 [Example 153, N-(2-fluorobenzyl)-N-cyclohexyl-3-(trifluoromethyl)-1H-pyrazole-5-carboxamide]",57%,
"CCN(CC)CCN(Cc1cccc(N)c1)C(=O)c1cc(C(F)(F)F)n[nH]1 [Example 154, N-(3-aminobenzyl)-N-(2-(diethylamino)ethyl)-3-(trifluoromethyl)-1H-pyrazole-5-carboxamide]",100%,
"CCNCCN(Cc1ccccc1F)C(=O)c1cc(C(F)(F)F)n[nH]1 [Example 155, N-(2-fluorobenzyl)-N-(2-(ethylamino)ethyl)-3-(trifluoromethyl)-1H-pyrazole-5-carboxamide]",100%,
"O=C(c1cc(C(F)(F)F)n[nH]1)N(CCN1CCCC1)Cc1ccccc1F [Example 158, N-(2-fluorobenzyl)-3-(trifluoromethyl)-N-(2-(pyrrolidin-1-yl)ethyl)-1H-pyrazole-5-carboxamide]",100%,
"CCN(CC)CCN(Cc1ccccc1Cl)C(=O)c1cc(C(F)(F)F)n[nH]1 [Example 159, N-(2-chlorobenzyl)-N-(2-(diethylamino)ethyl)-3-(trifluoromethyl)-1H-pyrazole-5-carboxamide]",100%,
"CCN(CC)CCN(Cc1cccc2[nH]cnc12)C(=O)c1cc(C(F)(F)F)n[nH]1 [Example 160, N-((1H-benzo[d]imidazol-4-yl)methyl)-N-(2-(diethylamino)ethyl)-3-(trifluoromethyl)-1H-pyrazole-5-carboxamide]",100%,
"CCN(CC)CCN(Cc1cccc2[nH]ccc12)C(=O)c1cc(C(F)(F)F)n[nH]1 [Example 161, N-((1H-indol-4-yl)methyl)-N-(2-(diethylamino)ethyl)-3-(trifluoromethyl)-1H-pyrazole-5-carboxamide]",100%,

SMILES,Max. Resp.,AC50
"O=C(c1cc(C(F)(F)F)n[nH]1)N(CCN1CCCC1)Cc1ccccc1Cl [Example 162, N-(2-chlorobenzyl)-3-(trifluoromethyl)-N-(2-(pyrrolidin-1-yl)ethyl)-1H-pyrazole-5-carboxamide]",100%,
"O=C(c1cc(C(F)(F)F)n[nH]1)N(CCN1CCCC1)Cc1cccc2nc[nH]c12 [Example 163, N-((1H-benzo[d]imidazol-7-yl)methyl)-3-(trifluoromethyl)-N-(2-(pyrrolidin-1-yl)ethyl)-1H-pyrazole-5-carboxamide]",100%,
"O=C(c1cc(C(F)(F)F)n[nH]1)N(CCN1CCCC1)Cc1cccc2[nH]ccc12 [Example 164, N-((1H-indol-4-yl)methyl)-3-(trifluoromethyl)-N-(2-(pyrrolidin-1-yl)ethyl)-1H-pyrazole-5-carboxamide]",100%,
"O=C(c1cc(C(F)(F)F)n[nH]1)N(CCN1CCCC1)Cc1ccc(Cl)cc1Cl [Example 165, N-(2,4-dichlorobenzyl)-3-(trifluoromethyl)-N-(2-(pyrrolidin-1-yl)ethyl)-1H-pyrazole-5-carboxamide]",50%,
"CCN(CC)CCN(Cc1cccc(Cl)c1Cl)C(=O)c1cc(C(F)(F)F)n[nH]1 [Example 167, N-(2,3-dichlorobenzyl)-N-(2-(diethylamino)ethyl)-3-(trifluoromethyl)-1H-pyrazole-5-carboxamide]",100%,
"CCN(CC)CCN(Cc1cc(Cl)ccc1Cl)C(=O)c1cc(C(F)(F)F)n[nH]1 [Example 168, N-(2,5-dichlorobenzyl)-N-(2-(diethylamino)ethyl)-3-(trifluoromethyl)-1H-pyrazole-5-carboxamide]",100%,
"CCN(CC)CCN(Cc1c(Cl)cccc1Cl)C(=O)c1cc(C(F)(F)F)n[nH]1 [Example 169, N-(2,6-dichlorobenzyl)-N-(2-(diethylamino)ethyl)-3-(trifluoromethyl)-1H-pyrazole-5-carboxamide]",100%,
"CCN(CC)CCN(Cc1ccc(F)cc1Cl)C(=O)c1cc(C(F)(F)F)n[nH]1 [Example 170, N-(2-chloro-4-fluorobenzyl)-N-(2-(diethylamino)ethyl)-3-(trifluoromethyl)-1H-pyrazole-5-carboxamide]",100%,
"CCN(CC)CCN(Cc1cc(F)ccc1Cl)C(=O)c1cc(C(F)(F)F)n[nH]1 [Example 171, N-(2-chloro-5-fluorobenzyl)-N-(2-(diethylamino)ethyl)-3-(trifluoromethyl)-1H-pyrazole-5-carboxamide]",100%,
"CCN(CC)CCN(Cc1ccccc1Cl)C(=O)c1cc(Br)n[nH]1 [Example 175, N-(2-chlorobenzyl)-3-bromo-N-(2-(diethylamino)ethyl)-1H-pyrazole-5-carboxamide]",100%,
"CCN(CC)CCN(Cc1ccccc1Cl)C(=O)c1cc(Cl)n[nH]1 [Example 176, N-(2-chlorobenzyl)-3-chloro-N-(2-(diethylamino)ethyl)-1H-pyrazole-5-carboxamide]",100%,1.15 µM
"O=C(c1cc(C(F)(F)F)n[nH]1)N(CCN1CCCC1)Cc1c(F)cccc1Cl [Example 177, N-(2-chloro-6-fluorobenzyl)-3-(trifluoromethyl)-N-(2-(pyrrolidin-1-yl)ethyl)-1H-pyrazole-5-carboxamide]",100%,
"O=C(c1cc(C(F)(F)F)n[nH]1)N(CCN1CCCC1)Cc1c(Cl)cccc1Cl [Example 178, N-(2,6-dichlorobenzyl)-3-(trifluoromethyl)-N-(2-(pyrrolidin-1-yl)ethyl)-1H-pyrazole-5-carboxamide]",100%,
"O=C(c1cc(C(F)(F)F)n[nH]1)N(CCN1CCCCC1)Cc1c(F)cccc1Cl [Example 179, N-(2-chloro-6-fluorobenzyl)-3-(trifluoromethyl)-N-(2-(piperidin-1-yl)ethyl)-1H-pyrazole-5-carboxamide]",100%,
"O=C(c1cc(C(F)(F)F)n[nH]1)N(CCN1CCCCC1)Cc1c(Cl)cccc1Cl [Example 180, N-(2,6-dichlorobenzyl)-3-(trifluoromethyl)-N-(2-(piperidin-1-yl)ethyl)-1H-pyrazole-5-carboxamide]",100%,
"CC(CN(Cc1ccccc1Cl)C(=O)c1cc(C(F)(F)F)n[nH]1)N1CCCC1 (centres unmarked) [Example 181, N-(2-chlorobenzyl)-3-(trifluoromethyl)-N-(2-(pyrrolidin-1-yl)propyl)-1H-pyrazole-5-carboxamide]",100%,
"CCN(CC)CCN(Cc1cccc(F)c1Cl)C(=O)c1cc(C(F)(F)F)n[nH]1 [Example 182, N-(2-chloro-3-fluorobenzyl)-N-(2-(diethylamino)ethyl)-3-(trifluoromethyl)-1H-pyrazole-5-carboxamide]",100%,
"CCN(CC)CCN(Cc1cc(N)ccc1Cl)C(=O)c1cc(C(F)(F)F)n[nH]1 [Example 183, N-(5-amino-2-chlorobenzyl)-N-(2-(diethylamino)ethyl)-3-(trifluoromethyl)-1H-pyrazole-5-carboxamide]",100%,
